Measurements published in patent US20230181463A1, “OLEOGEL AND OLEOPASTE COMPOSITIONS AND USES THEREOF” (Massachusetts Institute of Technology, priority 2020, published 2023).

Key:
[1] = Drug release from AZT oleogels in lipolysis medium (simulated intestinal fluid); type: in vitro ADME; conditions: in vitro release over 90 minutes, trapezoidal rule, triplicates
Protocol: Extensive in vitro release studies were conducted to understand the impact of oil, solubilizer and gelling agent on the release of AZT in simulated intestinal fluid (SIF).
Preparation of lipolysis buffer: To prepare lipolysis buffer, tris-maleate (0.474 g), calcium chloride dihydrate (0.275 g), sodium chloride (8.766 g) were weighed and distilled water was added to bring the volume to 1 L. The pH of the buffer was adjusted to pH 6.5 using 5N sodium hydroxide.
Preparation of lipolysis media: L—a phosphotidylcholine (0.576 g/l) and sodium taurodeoxycholate hydrate (1.619 g/l) were added to the lipolysis buffer. Next, the solution was stirred overnight to dissolve all ingredients.
Preparation of pancreatin solution: Three grams of pancreatin was added to 15 ml of lipolysis buffer and stirred on a magnetic stir plate for 10 minutes. The mixture was centrifuged at 28000g, at 5° C. for 10 minutes. The supernant was collected and the pH of the supernant was adjusted to pH 6.5 using 5N sodium hydroxide solution.
Preparation of negative control: To avoid the technical difficulty in material weighing, 40 mg of AZT powder was dispersed into 10 ml of methanol. It was sonicated for 1 minute to get a clear solution. One milliliter was taken into 3 separate Falcon tube and remained still to evaporate the solvent. […]

[2] = In silico pharmacokinetic modelling of AZT oleogels; conditions: first order fit to in vitro release data
Protocol: In vivo pharmacokinetics of the various formulations were calculated using the data obtained from in vitro release studies. To achieve this, pharmacokinetic modeling studies were conducted in two steps. In the first step, first order equations to in vitro release data were used to estimate rate constant for drug release (krel) and the extent of drug release (Agel, t=0). The rate constant of drug release was considered a measure of the speed of drug release. The extent of drug release or Agel, t=0 was a measure of the total amount of drug that could be released from the formulation at 90 min, which likely depended on the partition coefficient for AZT between the oily formulation and aqueous release medium. […] In the second step, one-compartment oral drug administration model was constructed. Using krel and Agel, t=0 as input, pharmacokinetic parameters such as maximum concentration (Cmax), time to maximum concentration (Tmax) and serum drug exposure or area under the curve (AUCfit) were determined. […]

Average AUC [1]: 127.23 µg·h/mL
Average Agel, t=0 ([2]; 4.00 mg AZT put in): 3.98 mg
SMILES: CC[C@H]1OC(=O)[C@H](C)[C@@H](O[C@H]2C[C@@](C)(OC)[C@@H](O)[C@H](C)O2)[C@H](C)[C@@H](O[C@@H]2O[C@H](C)C[C@H](N(C)C)[C@H]2O)[C@](C)(O)C[C@@H](C)CN(C)[C@H](C)[C@@H](O)[C@]1(C)O [Control, azithromycin]
average krel [2]: 5.28 h⁻¹
